The text below walks through data of publication PMC9916658, “Design and Synthesis of New Quinazolin-4-one Derivatives with Negative mGlu7 Receptor Modulation Activity and Antipsychotic-Like Properties” (International Journal of Molecular Sciences, 2023).

≈ marks a conversion by molar mass, not a printed value.

Data set [1] has as its target T1, recombinant human mGlu7 receptor (Homo sapiens, UniProt Q14831).
T1 construct: expressed in transfected cells; host or cells: T-REx 293 (tetracycline-inducible)
Kind of data set: NAM mGlu7 activity, forskolin-induced cAMP (HTRF) in T-REx 293 cell line. The note with it: forskolin-stimulated cAMP response, 5 µM LSP4-2022 (EC80), T-REx 293 human mGlu7; for inhibition at 10 µM: T-REx-293, 10 μM compound. In kind it is cell-based. Here is the method:
The cell lines with the tetracycline-inducible expression of human metabotropic receptors 4, 7, and 8 were described in detail by Chruścicka et al. (mGlu4 receptor NM_000841, mGlu7 receptor NM_000844.2, and mGlu8 receptor NM_000845). Cells were grown under standard cell culture conditions (37 °C, 5% CO2) in DMEM supplemented with 10% tetracycline-free FBS. The expression was induced through the addition of tetracycline to the culture medium at 0.75 μg/mL.
The determination of the intracellular cAMP through homogeneous time-resolved fluorescence (HTRF) was described in detail previously. Briefly, 48 h before the experiments, the expression of the receptor was induced through the addition of tetracycline to the culture medium; the next day, FBS and L-Glu were removed from the medium. Just before the cAMP measurement, the cells were detached and centrifuged. Then, the cell suspension in Hanks-HEPES (130 mM NaCl, 5.4 mM KCl, 1.8 mM CaCl2, 0.8 mM MgSO4, 0.9 mM NaH2PO4, 20 mM HEPES, and 3.25 mM glucose; pH 7.4) was incubated in the presence of 10 µM forskolin (mGlu7 receptor, 3 µM forskolin), the agonist LSP4-2022 or L-Glu (for mGlu4 and mGlu8), and a compound for 5 min. The intracellular concentration of cyclic AMP was measured by means of a cAMP Gi HTRF kit from Cisbio, according to the manufacturer’s instructions. After 1 h of incubation at room temperature, the fluorescence at 620 nm and 665 nm was read (Tecan Infinite M1000). The results were calculated as the 665 nm/620 nm ratio multiplied by 10^4. Each sample was prepared in triplicate. Data were analyzed using GraphPad Prism version 5.04 for Windows (GraphPad Software, San Diego, USA).
The activity of the compounds was examined in the T-REx 293-cell-line-expressing recombinant human mGlu7 receptor by detecting the level of cyclic AMP in the presence of 5 µM forskolin [7, 41]. […] The substances were incubated with 5 µM LSP4-2022 (EC80).
Firstly, all compounds were screened at 10 μM using three cell lines expressing the mGlu4/7/8 receptor to evaluate selectivity. For the mGlu4 and mGlu8 receptors, glutamic acid was used as an agonist and had good potency. […] VU0155041 and AZ12216052 were used as reference compounds for the mGlu4 and mGlu8 receptors, respectively. The parameter described as “% of inhibition” was introduced to compare the bioactivity of the new compounds to the reference NAM at a 10 μM concentration in the presence of 5 μM LSP4-2022 (0%) and 3 μM forskolin (100%). […] For compounds that passed the screening procedure, the dose–response curve in the presence of LSP4-2022 in 5 μM was evaluated compared to reference NAM ADX71743. Only compounds ALX-063, ALX-065, and ALX-171 (Figure S3, Supplementary Materials) met our conditions regarding bioactivity. All of them were further investigated to determine the EC50 and receptor selectivity. […]
2.1. NAM mGlu7 receptor activity on T-Rex 293 cell line
The activity of compounds was examined on T-REx 293 cell line expressing recombinant human mGlu7 receptor by detecting the level of cyclic AMP in the presence of 5 µM forskolin [14,15]. The cell line was […]
incubated with 5 µM of LSP4-2022 (EC80).

Data set [2] is described as follows: Kinetic solubility assay in HBSS buffer. In kind it is physicochemical. The conditions noted are these: aqueous buffer, kinetic from dmso stock; Hanks-HEPES (HBSS buffer), pH 7.4; read-out: KS (kinetic solubility). Here is the method: The kinetic solubility assay was performed to determine the solubility of the compounds in the in vitro assay conditions. The assay investigated the solubility based on the precipitation process in the HBSS buffer. For the preparation of the assay buffer, the following compounds were dissolved in 800 mL purified water: • − 130 mM sodium chloride, NaCl (7.600 g); • − 5.4 mM potassium chloride, KCl (0.403 g); • − 0.8 mM magnesium sulfate, MgSO4 × 7H2O (0.197 g); • − 0.9 mM sodium phosphate monobasic, NaH2PO4 × 2H2O (0.140 g); • − 25 mM D-glucose (4.500 g); • − 20 mM HEPES sodium salt (5.210 g).
The buffer was adjusted to pH 7.4, and the following compound was added to the mixture: • − 1.8 mM calcium chloride, CaCl2 × 2H2O (0.265 g).
The total volume was adjusted to 1000 mL.
The investigated compounds were diluted (in triplicate) with the HBSS buffer at pH 7.4 to a final concentration of 500 μM.
The mixture was shaken on a filter plate at 500 rpm for 1.5 h at RT. After incubation, the filter plate was placed inside a vacuum manifold and filtrated. Samples were collected and the concentration of the filtrate was determined spectrophotometrically by measuring the UV–VIS absorption spectrum. Concentrations were calculated based on equations resulting from the calibration curves (in duplicates, 8 calibration points, dilution Factor ×2, 500 µM → 3.91 µM, including blank sample).

T1 sequence (Q14831 35-915): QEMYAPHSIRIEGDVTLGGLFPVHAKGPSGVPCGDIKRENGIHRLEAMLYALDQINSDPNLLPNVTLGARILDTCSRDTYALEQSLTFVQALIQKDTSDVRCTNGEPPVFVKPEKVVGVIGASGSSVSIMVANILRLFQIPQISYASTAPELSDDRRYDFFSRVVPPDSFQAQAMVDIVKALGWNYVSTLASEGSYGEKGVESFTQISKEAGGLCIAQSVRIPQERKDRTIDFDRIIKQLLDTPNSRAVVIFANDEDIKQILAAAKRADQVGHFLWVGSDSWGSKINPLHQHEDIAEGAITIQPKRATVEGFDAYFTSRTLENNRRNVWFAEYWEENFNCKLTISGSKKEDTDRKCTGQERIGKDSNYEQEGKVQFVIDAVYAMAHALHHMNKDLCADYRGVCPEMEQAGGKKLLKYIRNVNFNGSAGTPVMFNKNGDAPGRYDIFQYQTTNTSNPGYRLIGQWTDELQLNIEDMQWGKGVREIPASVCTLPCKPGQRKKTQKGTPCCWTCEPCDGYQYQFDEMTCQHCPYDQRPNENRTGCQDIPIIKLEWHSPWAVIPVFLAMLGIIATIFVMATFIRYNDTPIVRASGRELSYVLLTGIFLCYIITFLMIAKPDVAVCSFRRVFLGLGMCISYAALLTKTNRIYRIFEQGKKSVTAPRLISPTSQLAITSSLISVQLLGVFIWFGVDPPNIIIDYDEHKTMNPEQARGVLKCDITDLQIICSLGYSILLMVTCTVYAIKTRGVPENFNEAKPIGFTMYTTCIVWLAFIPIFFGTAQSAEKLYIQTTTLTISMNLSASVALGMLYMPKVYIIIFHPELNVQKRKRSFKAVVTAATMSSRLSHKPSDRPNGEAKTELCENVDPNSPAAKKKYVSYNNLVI

A word on the inhibition: it is the drop in the measured response relative to a control, in per cent. By solubility (kinetic) is commonly meant the concentration staying in solution when a stock, usually in DMSO, is diluted into the medium. On to `CCc1nc2c(o1)CC(c1ccc(C)cc1C)CC2=O` (stereo not shown) [ADX71743, reference compound], for which the inhibition at 10 µM in data set [1] amounted to 42.6%. The solubility (kinetic) at 1.5 h in data set [2] was found to be 510 µM (≈ 137 µg/mL).
For `Cn1c(-c2ccccc2Cl)nc2ccc(-c3ccccc3)cc2c1=O` [ALX-065, 2-(2-chlorophenyl)-3-methyl-6-phenylquinazolin-4(3H)-one], in that order: 26.5 ± 11.8% and 6.88 µM (≈ 2.39 µg/mL).
As for `COc1cccc(-c2ccc3nc(-c4ccccc4Cl)n(C)c(=O)c3c2)c1OC` [ALX-171, 2-(2-chlorophenyl)-6-(2,3-dimethoxyphenyl)-3-methylquinazolin-4(3H)-one], the “Inhibition (%)” value in data set [1] (10 μM compound) was 30.8 ± 6.44%. The inhibition at 10 µM in data set [1] amounted to 30.8 ± 6.44%. Further, in data set [2], the kinetic solubility at 1.5 h was found to be 15.2 µM (≈ 6.2 µg/mL).
